In patent US20250049930A1, “PROTAC MOLECULES TARGETING FOXP3 AND USES THEREOF” (CEDARS-SINAI MEDICAL CENTER, priority 2022, published 2025):
Residues, ends and D or L forms follow the SMILES beside them. *: point of attachment. X1 = O=C1CCC(N2C(=O)c3cccc(*)c3C2=O)C(=O)N1; PEG4 = NCCOCCOCCOCCOCCC(=O)O

What was measured:
[1] = test system: Tregs; test: Treg immunosuppression co-culture assay with mouse splenocytes (CFSE dilution, TNFα); type: cell-based; settings: mouse CD4+ splenocytes treated 72 hours, co-cultured with effector cells stimulated with αCD3 and αCD28
Procedure: FIGS. 3A-3D depict that PF decreased the immunosuppressive function of Tregs in vitro and decreased tumor growth in mice. To treat Tregs, CD4+ splenocytes were isolated and treated with PF or various controls for 72 hours. To assess the immunosuppressive effects of these cells, they were washed and co-cultured with effector cells, which were stimulated with antibodies to CD3 and CD28 in vitro (FIGS. 3A-3C). CD8 proliferation was measured using a CFSE dilution assay. To assess CD8+ effector cells, CD4 negative splenocytes were CFSE labeled and CFSE dilution was measured in CD8+ cells by flow cytometry (FIG. 3A). In the same experiment, CD8+ lymphocyte activation was assessed by measuring TNFα (FIG. 3B). Also, CD4+ lymphocyte activation was assessed by measuring TNFα (FIG. 3C). Mice tumors were established by injection RENCA cells subcutaneously in the flank of Balb/C mice (5-7 mice per group) (FIG. 3D). 10 days later, mice were treated i.p., twice a week throughout the experiment, with the indicated drugs and tumor growth was monitored. Pomalidomide conjugated to (PEG)4 (PROTAC-control; PC) and P60 served as controls. […]
To assess T cell activation in vitro, single suspension of mouse splenocytes were separated into CD4 positive (+) and negative (−) cells using EasySep Mouse CD4+ selection kit (STEMCELL technologies, Vancouver, BC, Canada). […] To study effector cell function, CD4+ and CD4− cells were cocultured (1.2 ratio) with treated-Treg and stimulated with αCD3 (10 μg/mL) and αCD28 (5 μg/mL) for 3 days; percent of CD4+ or CD8+ cells staining for intracellular FoxP3, CFSE, or TNFα were assessed by flow cytometry (LSR II, BD Biosciences, San Jose, CA 95131).
Tregs play a central role in suppressing and regulating the immune response. […] CD8 proliferation was measured using a CFSE dilution assay. To assess CD8+ effector cells, CD4 negative splenocytes were CFSE labeled and CFSE dilution was measured in CD8+ cells by flow cytometry (FIG. 3A). CD8+ lymphocyte activation was assessed by measuring TNFα (FIG. 3B). Also, CD4+ lymphocyte activation was assessed by measuring TNFα (FIG. 3C). […]

[2] = test system: RENCA tumors; test: Subcutaneous RENCA tumor growth in mice; type: in vivo; settings: s.c. RENCA in Balb/C mice, i.p. treatment from day 10, vs saline
Procedure: Mice: Balb/C mice, 5-8 weeks old, were purchased from Jackson laboratory (Ellsworth, Maine) and housed under pathogen free conditions. All experiments involving animals followed federal and state standards, which include the federal Animal Welfare Act and the NIH guide for the care and use of laboratory animals. The RENCA tumors were generated by subcutaneously injecting 2×10^5 tumor cells into the frank. The day tumor cells were injected was considered day 0. PF (0.1 mmol), PC (0.1 mmol) or P60 (100 ug) was administered i.p. twice a week starting on day 10; αPD1 (200 μg) was administered i.p. twice a week starting on day 5; temsirolimus (15 μg) was administered i.p. every other day, starting on day 10. All drugs were administered throughout the experimental course unless indicated. CD8 cells were depleted with a one-time αCD8 (200 μg) i.p. administration on day 2.
In cancer, Tregs can suppress the antitumor immune response, which is primarily mediated by CD8+ lymphocytes. Therefore, PF was administered to mice to enhance antitumor immunity and suppress growth of syngeneic mouse kidney cancer, which is considered an immunoresponsive cancer type. Mice tumors were established by injecting RENCA cells subcutaneously in the flank of Balb/C mice (5-7 mice per group). RENCA cells were injected subcutaneously to establish palpable tumors, and 10 days later mice were treated i.p., twice a week throughout the experiment, with PF, PC, P60 or Saline (FIG. 3D). Pomalidomide conjugated to (PEG)4 (PROTAC-control; PC) and P60 served as controls. […] In summary, PF decreased the immunosuppressive function of Tregs in vitro and decreased tumor growth in mice. […]
All immunotherapies, particularly when multi-drug combinations are involved, may have off-target effects. For example, drugs may have direct effects on the tumor, inhibiting tumor proliferation or inducing tumor apoptosis. Mice tumors were established by injecting RENCA cell subcutaneously in the flank of Balb/C mice (6-8 mice per group). 10 days later, mice were treated with PF twice per week. CD8 lymphocytes were depleted with αCD8 administered i.p. 2 days after injection of tumor cells. Mice in indicated groups received i.p. αPD1, twice a week, starting day 5 (FIG. 5A). Mice in indicated groups received i.p. temsirolimus every other day for 14 days, starting on days 10 (FIG. 5B). Tumor growth was monitored in these groups. […]

## CSCC[C@H](NC(=O)[C@H](C)NC(=O)[C@H](Cc1ccccc1)NC(=O)[C@H](Cc1ccccc1)NC(=O)[C@@H]1CCCN1C(=O)[C@H](Cc1c[nH]c2ccccc12)NC(=O)[C@H](CCSC)NC(=O)[C@H](CCCCN)NC(=O)[C@H](CCCNC(=N)N)NC(=O)[C@H](Cc1ccccc1)NC(=O)[C@H](CO)NC(=O)[C@H](CCC(N)=O)NC(=O)[C@H](Cc1ccccc1)NC(=O)[C@H](CC(=O)O)NC(=O)[C@H](CCCNC(=N)N)NC(=O)CCOCCOCCOCCOCCNc1cccc2c1C(=O)N(C1CCC(=O)NC1=O)C2=O)C(=O)O (some centres unmarked) [PF, Pomalidomide-PEG4-RDFQSFRKMWPFFAM] ({X1-PEG4}-RDFQSFRKMWPFFAM-OH)
[1]
  suppression of CD4+ effector lymphocyte activation by treated CD4+ cells (TNFα): less capable of suppressing the activation of CD4+ effector lymphocytes
  suppression of CD8+ lymphocyte activation by treated CD4+ lymphocytes (TNFα expression): less capable of suppressing
  suppression of CD8+ lymphocyte proliferation by treated CD4+ lymphocytes (CFSE dilution): less capable of suppressing
[2]
  tumor growth, single agent: produced a decrease in tumor growth
[2]; listed as P-FoxP3
  tumor growth, single agent: appeared to decrease tumor growth compared to saline control
